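Test compounds were applied to cells in 96-well plates for 48 hours at 5 doses. Here, GI50 denotes the concentration required for 50% inhibition of growth.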 Calls of active or inactive are those of the source. No stated cut-off is given here; in the data, active = GI50 up to about 1.1 µM and inactive = higher.
Key:
Experiment in all cases: growth of human tumour cells (NCI), 48 h
NCI/ADR-RES = system: NCI/ADR-RES
CCRF-CEM = system: CCRF-CEM
HOP-62 = system: HOP-62
HCT-15 = system: HCT-15
MDA-N = system: MDA-N
HOP-92 = system: HOP-92
SF-539 = system: SF-539
NCI-H522 = system: NCI-H522
OVCAR-5 = system: OVCAR-5
SK-MEL-5 = system: SK-MEL-5
RPMI-8226 = system: RPMI-8226
K562 = system: K562
SW-620 = system: SW-620
NCI-H23 = system: NCI-H23
NCI-H460 = system: NCI-H460
HT-29 = system: HT-29
RXF 393 = system: RXF 393
M14 = system: M14
SK-OV-3 = system: SK-OV-3
SF-295 = system: SF-295

Measured: GI50

O=C1OC(c2ccc(O)c(-c3ccccc3)c2)(c2ccc(O)c(-c3ccccc3)c2)c2c(Cl)c(Cl)c(Cl)c(Cl)c21
inactive: NCI/ADR-RES > 100 µM | CCRF-CEM > 100 µM | HOP-62 > 100 µM | MDA-N > 100 µM | HOP-92 > 100 µM | SF-539 > 100 µM | NCI-H522 > 100 µM | OVCAR-5 > 100 µM | SK-MEL-5 > 100 µM | RPMI-8226 > 100 µM | K562 > 100 µM | SW-620 > 100 µM | NCI-H23 > 100 µM | NCI-H460 > 100 µM | HT-29 > 100 µM | RXF 393 > 100 µM | M14 > 100 µM | SK-OV-3 > 100 µM | SF-295 > 100 µM
> 100 µM: HCT-15

CN(C)CC1CC/C(=C\c2ccc(O)cc2)C1=O (stereo not given)
inactive: NCI/ADR-RES 5.32 µM | HOP-62 18.5 µM | MDA-N 2.71 µM | HOP-92 2.48 µM | SF-539 7.8 µM | NCI-H522 1.47 µM | OVCAR-5 17.4 µM | SK-MEL-5 8.28 µM | SW-620 2.33 µM | NCI-H23 6.67 µM | NCI-H460 17.5 µM | HT-29 3.04 µM | RXF 393 2.07 µM | M14 2.14 µM | SK-OV-3 18.4 µM | SF-295 19.2 µM
active: CCRF-CEM 0.933 µM | RPMI-8226 1.02 µM | K562 0.975 µM
2.21 µM: HCT-15

C/C(=N\N=C(/S)N(C)C)c1cccc[n+]1[O-]
1.45 µM: HCT-15
inactive: NCI/ADR-RES 2.05 µM | HOP-62 18 µM | MDA-N 95.1 µM | HOP-92 22.3 µM | SF-539 47.4 µM | NCI-H522 4.05 µM | OVCAR-5 35.9 µM | SK-MEL-5 27.7 µM | RPMI-8226 3.62 µM | SW-620 22.3 µM | NCI-H23 12.6 µM | NCI-H460 33.6 µM | HT-29 3.05 µM | RXF 393 65.3 µM | M14 25.9 µM | SK-OV-3 70.5 µM | SF-295 39.6 µM
active: CCRF-CEM 0.565 µM | K562 0.631 µM

COc1cc(C2c3cc4c(cc3OC(N3CCCCC3)C2C)OCO4)cc(OC)c1O (stereo not given)
inactive: NCI/ADR-RES 4.57 µM | CCRF-CEM 3.4 µM | HOP-62 6.78 µM | MDA-N 2.14 µM | HOP-92 15 µM | SF-539 9.64 µM | NCI-H522 3.67 µM | OVCAR-5 20.1 µM | SK-MEL-5 5.7 µM | RPMI-8226 9.35 µM | K562 4.06 µM | SW-620 5.31 µM | NCI-H23 18.7 µM | NCI-H460 6.64 µM | HT-29 8.75 µM | RXF 393 14.5 µM | M14 9.42 µM | SK-OV-3 5.89 µM | SF-295 3.7 µM
11.6 µM: HCT-15

O=C1C=C(Br)C(=O)C12CCc1ccccc12 (stereo not given)
inactive: NCI/ADR-RES 27.7 µM | CCRF-CEM 2.66 µM | HOP-62 39 µM | MDA-N 16.5 µM | HOP-92 13.5 µM | SF-539 17.4 µM | NCI-H522 3.36 µM | OVCAR-5 18 µM | SK-MEL-5 19.7 µM | RPMI-8226 3.05 µM | K562 2.52 µM | SW-620 4.4 µM | NCI-H23 19.7 µM | NCI-H460 22.6 µM | HT-29 14.8 µM | RXF 393 9.14 µM | M14 12.4 µM | SK-OV-3 27.4 µM | SF-295 18.6 µM
7.53 µM: HCT-15

CC(=O)O[C@@H](C1C[C@@H](C)[C@H]2[C@@](O)(O1)[C@H](O)[C@@]1(C)C3=CC[C@H]4C(C)(C)[C@@H](OC5OCC(O)C(O)C5O)CC[C@@]45C[C@@]35CC[C@]21C)C(C)(C)O (stereo not given in full)
inactive: NCI/ADR-RES 46.8 µM | CCRF-CEM 2.82 µM | HOP-62 32.7 µM | MDA-N 26.9 µM | HOP-92 23.8 µM | SF-539 15.7 µM | NCI-H522 17.8 µM | OVCAR-5 28.6 µM | SK-MEL-5 17.8 µM | RPMI-8226 18 µM | K562 28.2 µM | SW-620 30.2 µM | NCI-H23 22.4 µM | NCI-H460 18.2 µM | HT-29 25.8 µM | RXF 393 15.9 µM | M14 29.3 µM | SK-OV-3 26.5 µM | SF-295 21.1 µM
28.4 µM: HCT-15

OCCN1CCN(c2nc(N3CCCC3)c3nc(Cl)c(NCc4ccccc4)nc3n2)CC1
inactive: NCI/ADR-RES 10.9 µM | CCRF-CEM 3.8 µM | HOP-62 3.58 µM | MDA-N 3.7 µM | HOP-92 5.16 µM | SF-539 5.81 µM | NCI-H522 5.04 µM | OVCAR-5 13.1 µM | SK-MEL-5 3.51 µM | RPMI-8226 2.83 µM | K562 2.54 µM | SW-620 3.78 µM | NCI-H23 14.5 µM | NCI-H460 5.58 µM | HT-29 3.18 µM | RXF 393 1.32 µM | M14 3.03 µM | SK-OV-3 13.7 µM | SF-295 5.53 µM
2.84 µM: HCT-15

CCOC(=O)c1ccc(Nc2nc3ccccc3n3cccc23)cc1
active: CCRF-CEM 0.0217 µM
21.8 µM: HCT-15
inactive: NCI/ADR-RES 38.1 µM | HOP-62 25.7 µM | MDA-N 3.15 µM | HOP-92 52.7 µM | SF-539 35.2 µM | NCI-H522 88.1 µM | OVCAR-5 > 100 µM | SK-MEL-5 66.8 µM | RPMI-8226 > 100 µM | K562 29.8 µM | SW-620 9.38 µM | NCI-H23 63.8 µM | NCI-H460 84.7 µM | HT-29 36.7 µM | RXF 393 14.3 µM | M14 > 100 µM | SK-OV-3 27.4 µM | SF-295 27.1 µM

CCNC(=O)C1CCCN1C(=O)C(CCCN=C(N)N)NC(=O)C(CC(C)C)NC(=O)C(Cc1c[nH]c2ccccc12)NC(=O)C(Cc1ccc(O)cc1)NC(=O)C(CO)NC(=O)C(Cc1c[nH]c2ccccc12)NC(=O)C(Cc1c[nH]cn1)NC(=O)C1CCC(=O)N1 (stereo not given)
> 100 µM: HCT-15
inactive: NCI/ADR-RES > 100 µM | CCRF-CEM > 100 µM | HOP-62 > 100 µM | MDA-N > 100 µM | HOP-92 > 100 µM | SF-539 > 100 µM | NCI-H522 > 100 µM | OVCAR-5 > 100 µM | SK-MEL-5 > 100 µM | RPMI-8226 > 100 µM | K562 > 100 µM | SW-620 > 100 µM | NCI-H23 > 100 µM | NCI-H460 > 100 µM | HT-29 > 100 µM | RXF 393 > 100 µM | M14 > 100 µM | SK-OV-3 > 100 µM | SF-295 > 100 µM

O=C(CC(C(=O)c1ccsc1)c1ccccc1)c1ccccc1 (stereo not given)
inactive: NCI/ADR-RES 18.7 µM | CCRF-CEM 69.2 µM | HOP-62 > 100 µM | MDA-N > 100 µM | HOP-92 > 100 µM | SF-539 > 100 µM | NCI-H522 34.8 µM | OVCAR-5 > 100 µM | SK-MEL-5 43.2 µM | RPMI-8226 > 100 µM | K562 > 100 µM | SW-620 > 100 µM | NCI-H460 > 100 µM | HT-29 > 100 µM | RXF 393 > 100 µM | M14 > 100 µM | SK-OV-3 > 100 µM | SF-295 76.9 µM
83.9 µM: HCT-15
active: NCI-H23 0.0217 µM

C=C(C)C(=O)OC1CC2(C)OC(=CC2=O)C(C)CC2OC(=O)C(=C)C12 (stereo not given)
inactive: NCI/ADR-RES 8.95 µM | HOP-62 19.2 µM | MDA-N 3.01 µM | HOP-92 5.56 µM | SF-539 3.91 µM | OVCAR-5 10.4 µM | SK-MEL-5 3.52 µM | RPMI-8226 3.3 µM | SW-620 2.79 µM | NCI-H23 8.89 µM | NCI-H460 11.9 µM | HT-29 3.92 µM | RXF 393 1.19 µM | M14 5.48 µM | SK-OV-3 34.9 µM | SF-295 19 µM
1.65 µM: HCT-15
active: CCRF-CEM 0.839 µM | NCI-H522 0.832 µM | K562 0.656 µM

CC[C@@H](/C=C\CCC1(C[C@@H](N)CCC=C(C)C)OCCO1)O[Si](C(C)C)(C(C)C)C(C)C
18.9 µM: HCT-15
inactive: NCI/ADR-RES 16.8 µM | CCRF-CEM 11.6 µM | HOP-62 22 µM | MDA-N 16.4 µM | HOP-92 14.9 µM | SF-539 17.7 µM | NCI-H522 20 µM | OVCAR-5 17.2 µM | SK-MEL-5 18.1 µM | RPMI-8226 17.9 µM | K562 10.8 µM | SW-620 21.7 µM | NCI-H23 21.1 µM | NCI-H460 18.4 µM | HT-29 17.3 µM | RXF 393 19.4 µM | M14 18.5 µM | SK-OV-3 20 µM | SF-295 19 µM

COc1ccc2c(c1)OC(c1cccnc1)C(c1ccccc1)C2=O (stereo not given)
> 100 µM: HCT-15
inactive: NCI/ADR-RES > 100 µM | CCRF-CEM > 100 µM | HOP-62 25.9 µM | MDA-N > 100 µM | HOP-92 49.5 µM | SF-539 > 100 µM | NCI-H522 > 100 µM | OVCAR-5 > 100 µM | SK-MEL-5 > 100 µM | RPMI-8226 > 100 µM | K562 > 100 µM | SW-620 > 100 µM | NCI-H23 > 100 µM | NCI-H460 > 100 µM | HT-29 > 100 µM | RXF 393 > 100 µM | M14 > 100 µM | SK-OV-3 59.4 µM | SF-295 46.5 µM

COc1ccc(Cc2cc(OC)c(OC)c(OC)c2)cc1
active: NCI/ADR-RES 0.146 µM | CCRF-CEM 0.165 µM | HOP-62 0.411 µM | MDA-N 0.0245 µM | HOP-92 0.805 µM | SF-539 0.224 µM | NCI-H522 0.19 µM | SK-MEL-5 0.167 µM | RPMI-8226 0.298 µM | K562 0.0665 µM | SW-620 0.109 µM | NCI-H23 0.395 µM | NCI-H460 0.286 µM | HT-29 0.124 µM | RXF 393 0.168 µM | M14 0.411 µM | SK-OV-3 0.308 µM | SF-295 0.188 µM
0.114 µM: HCT-15
inactive: OVCAR-5 8.83 µM
